ChEMBL document CHEMBL4130562, “Design, Synthesis, and Antibacterial Evaluation of Oxazolidinones with Fused Heterocyclic C-Ring Substructure” (ACS Med Chem Lett, 2017)
Values after ≈ are worked out from the molar mass of the structure shown.

Key:
Assay type in all cases: functional
[1] = tested on: Staphylococcus aureus; test: Antibacterial activity against linezolid-resistant Staphylococcus aureus by microbroth dilution method
[2] = tested on: Streptococcus pneumoniae; test: Antibacterial activity against Streptococcus pneumoniae 55143 by microbroth dilution method
[3] = tested on: Staphylococcus aureus; test: Antibacterial activity against Staphylococcus aureus ATCC 33591 by microbroth dilution method
[4] = tested on: Staphylococcus aureus; test: Antibacterial activity against Staphylococcus aureus ATCC 29213 by microbroth dilution method
[5] = tested on: Staphylococcus aureus; test: Antibacterial activity against methicillin-resistant Staphylococcus aureus 1201984 by microbroth dilution method
[6] = tested on: Streptococcus pyogenes; test: Antibacterial activity against Streptococcus pyogenes ATCC 19615 by microbroth dilution method
[7] = tested on: Haemophilus influenzae; test: Antibacterial activity against Haemophilus influenzae ATCC 49247 by microbroth dilution method
[8] = tested on: Staphylococcus aureus; test: Antibacterial activity against Staphylococcus aureus ATCC 6538P by microbroth dilution method
[9] = tested on: Enterococcus faecalis; test: Antibacterial activity against Enterococcus faecalis ATCC 29212 by microbroth dilution method
[10] = tested on: Staphylococcus epidermidis; test: Antibacterial activity against Staphylococcus epidermidis ATCC 14990 by microbroth dilution method
[11] = tested on: Enterococcus faecium; test: Antibacterial activity against Enterococcus faecium 19434 by microbroth dilution method

Row | SMILES | MIC [1] [µg/mL] | MIC [2] [µg/mL] | MIC [3] [µg/mL] | MIC [4] [µg/mL] | MIC [5] [µg/mL] | MIC [6] [µg/mL] | MIC [7] [µg/mL] | MIC [8] [µg/mL] | MIC [9] [µg/mL] | MIC [10] [µg/mL] | MIC [11] [µg/mL]
1 | Cl.NC[C@H]1CN(c2ccc(-c3ccc4c(c3)NC(=O)CO4)c(F)c2)C(=O)O1 | > 32 | 4 | 16 | 8 | 8 | 4 | 4 | 4 | 8 | 4 | 4
2 | C[C@H]1COc2c(N3CCN(C)CC3)c(F)cc3c(=O)c(C(=O)O)cn1c23.C[C@H]1COc2c(N3CCN(C)CC3)c(F)cc3c(=O)c(C(=O)O)cn1c23.O [LEVOFLOXACIN] | > 32 | 0.125 | 0.25 | 0.125 | 16 | 0.06 | 0.06 | 0.125 | 0.25 | 0.5 | 4
3 | Cl.N=C(N)NC[C@H]1CN(c2ccc(-c3ccc4c(c3)NC(=O)CO4)c(F)c2)C(=O)O1 | > 32 | > 32 | > 32 | > 32 | > 32 | > 32 | > 32 | > 32 | > 32 | > 32 | > 32
4 | O=C(CO)NC[C@H]1CN(c2ccc(-c3ccc4c(c3)NC(=O)CO4)c(F)c2)C(=O)O1 | 4 (≈ 9.63 µM) | 0.125 (≈ 0.301 µM) | 1 (≈ 2.41 µM) | 1 (≈ 2.41 µM) | 1 (≈ 2.41 µM) | 0.125 (≈ 0.301 µM) | 0.5 (≈ 1.2 µM) | 0.25 (≈ 0.602 µM) | 0.06 (≈ 0.144 µM) | 0.25 (≈ 0.602 µM) | 0.06 (≈ 0.144 µM)
5 | O=C1O[C@@H](CO)CN1c1ccc(-c2ccc3c(c2)NC(=O)C2(CC2)O3)c(F)c1 | 2 (≈ 5.2 µM) | 0.25 (≈ 0.65 µM) | 0.5 (≈ 1.3 µM) | 0.25 (≈ 0.65 µM) | < 0.06 | 0.25 (≈ 0.65 µM) | 0.5 (≈ 1.3 µM) | < 0.06 | 0.125 (≈ 0.325 µM) | < 0.06 | < 0.06
6 | O=C1COc2cc(-c3ccc(N4C[C@H](CO)OC4=O)cc3F)ccc2N1 | 16 (≈ 44.7 µM) | 2 (≈ 5.58 µM) | 0.5 (≈ 1.4 µM) | 0.5 (≈ 1.4 µM) | 0.5 (≈ 1.4 µM) | 2 (≈ 5.58 µM) | 0.25 (≈ 0.698 µM) | 0.5 (≈ 1.4 µM) | 1 (≈ 2.79 µM) | 0.5 (≈ 1.4 µM) | 1 (≈ 2.79 µM)
7 | CCC(=O)NC[C@H]1CN(c2ccc(-c3ccc4c(c3)NC(=O)CO4)c(F)c2)C(=O)O1 | 1 (≈ 2.42 µM) | 0.5 (≈ 1.21 µM) | 0.25 (≈ 0.605 µM) | 0.25 (≈ 0.605 µM) | 0.5 (≈ 1.21 µM) | 0.25 (≈ 0.605 µM) | 0.25 (≈ 0.605 µM) | 0.125 (≈ 0.302 µM) | 0.25 (≈ 0.605 µM) | 0.125 (≈ 0.302 µM) | 0.06 (≈ 0.145 µM)
8 | CS(=O)(=O)NC[C@H]1CN(c2ccc(-c3ccc4c(c3)NC(=O)CO4)c(F)c2)C(=O)O1 | 8 (≈ 18.4 µM) | 0.25 (≈ 0.574 µM) | 1 (≈ 2.3 µM) | 8 (≈ 18.4 µM) | 1 (≈ 2.3 µM) | 0.25 (≈ 0.574 µM) | 0.5 (≈ 1.15 µM) | 0.25 (≈ 0.574 µM) | 0.25 (≈ 0.574 µM) | 0.5 (≈ 1.15 µM) | 0.125 (≈ 0.287 µM)
9 | COC(=O)NC[C@H]1CN(c2ccc(-c3ccc4c(c3)NC(=O)CO4)c(F)c2)C(=O)O1 | 0.5 (≈ 1.2 µM) | 0.06 (≈ 0.144 µM) | 0.125 (≈ 0.301 µM) | 0.125 (≈ 0.301 µM) | 0.06 (≈ 0.144 µM) | 0.06 (≈ 0.144 µM) | 0.125 (≈ 0.301 µM) | 0.06 (≈ 0.144 µM) | 0.06 (≈ 0.144 µM) | 0.06 (≈ 0.144 µM) | 0.06 (≈ 0.144 µM)
10 | O=C1CCOc2ccc(-c3ccc(N4C[C@H](CO)OC4=O)cc3F)cc2N1 | 2 (≈ 5.37 µM) | 0.25 (≈ 0.671 µM) | 0.5 (≈ 1.34 µM) | 0.125 (≈ 0.336 µM) | 0.125 (≈ 0.336 µM) | 0.25 (≈ 0.671 µM) | 0.5 (≈ 1.34 µM) | 0.06 (≈ 0.161 µM) | 0.25 (≈ 0.671 µM) | 0.06 (≈ 0.161 µM) | 0.125 (≈ 0.336 µM)
11 | O=C1O[C@@H](CO)CN1c1ccc(-c2ccc3c(c2)OCCO3)c(F)c1 | > 32 | 0.5 (≈ 1.45 µM) | 32 (≈ 92.7 µM) | 4 (≈ 11.6 µM) | 32 (≈ 92.7 µM) | 0.5 (≈ 1.45 µM) | 8 (≈ 23.2 µM) | 1 (≈ 2.9 µM) | 4 (≈ 11.6 µM) | 0.06 (≈ 0.174 µM) | 2 (≈ 5.79 µM)
12 | O=C1COc2ccc(-c3ccc(N4C[C@H](CNC(=O)C5CCC5)OC4=O)cc3F)cc2N1 | 2 (≈ 4.55 µM) | 1 (≈ 2.28 µM) | 0.5 (≈ 1.14 µM) | 0.5 (≈ 1.14 µM) | 0.5 (≈ 1.14 µM) | 1 (≈ 2.28 µM) | 1 (≈ 2.28 µM) | 0.125 (≈ 0.284 µM) | 0.06 (≈ 0.137 µM) | 0.25 (≈ 0.569 µM) | 0.06 (≈ 0.137 µM)
13 | CC1(C)Oc2ccc(-c3ccc(N4C[C@H](CO)OC4=O)cc3F)cc2NC1=O | 16 (≈ 41.4 µM) | 0.25 (≈ 0.647 µM) | 1 (≈ 2.59 µM) | 0.25 (≈ 0.647 µM) | 0.25 (≈ 0.647 µM) | 0.25 (≈ 0.647 µM) | 0.125 (≈ 0.324 µM) | 0.125 (≈ 0.324 µM) | 0.5 (≈ 1.29 µM) | < 0.06 | 0.25 (≈ 0.647 µM)
